Reference: the supplement of paper PMC10307832

How the values were obtained:
Experiment in all cases: relative viability (nuclei count vs DMSO), 5 days (fraction); higher = more cells survive
SW 900 = system: SW 900
Outline: (§1)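 Dosing by pin tool came one day after lung cancer cell lines were seeded in 1536-well plates, using either one drug or a fixed anchor-drug dose plus five library-drug doses (not always all listed) in √10 steps. After 5 days, nuclei were counted on 4× images. Relative viability is treated-well nuclei count divided by vehicle-well nuclei count, and values are medians of duplicate plates.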

NCI-H441 = system: NCI-H441
Outline: as §1

NCI-H1944 = system: NCI-H1944
Outline: as §1

NCI-H2126 = system: NCI-H2126
Outline: as §1

NCI-H322M = system: NCI-H322M
Outline: as §1

NCI-H1666 = system: NCI-H1666
Outline: as §1

NCI-H2228 = system: NCI-H2228
Outline: as §1

COR-L23 = system: COR-L23
Outline: as §1

EPLC-272H = system: EPLC-272H
Outline: as §1

NCI-H2087 = system: NCI-H2087
Outline: as §1

SW 1573 = system: SW 1573
Outline: as §1

NCI-H2023 = system: NCI-H2023
Outline: as §1

PC-14 = system: PC-14
Outline: as §1

ChaGo-K-1 = system: ChaGo-K-1
Outline: as §1

NCI-H460 = system: NCI-H460
Outline: as §1

HOP-62 = system: HOP-62
Outline: as §1

NCI-H1355 = system: NCI-H1355
Outline: as §1

EMC-BAC-2 = system: EMC-BAC-2
Outline: as §1

LCLC-103H = system: LCLC-103H
Outline: as §1

NCI-H3122 = system: NCI-H3122
Outline: as §1

NCI-H596 = system: NCI-H596
Outline: as §1

NCI-H2405 = system: NCI-H2405
Outline: as §1

NCI-H1975 = system: NCI-H1975
Outline: as §1

LK-2 = system: LK-2
Outline: as §1

Nc1cccc2c1CN(C1CCC(=O)NC1=O)C2=O (configuration not stated) [Lenalidomide] + Cc1nc(Nc2ncc(C(=O)Nc3c(C)cccc3Cl)s2)cc(N2CCN(CCO)CC2)n1 [Dasatinib] (partner 0.075 µM)
relative viability (SW 900; first compound 0.253 µM): 0.498 | relative viability (SW 900; first compound 2.53 µM): 0.606 | relative viability (SW 900; first compound 8 µM): 0.828 | relative viability (NCI-H441; first compound 0.253 µM): 0.67 | relative viability (NCI-H441; first compound 0.8 µM): 0.518 | relative viability (NCI-H441; first compound 2.53 µM): 0.648 | relative viability (NCI-H441; first compound 8 µM): 0.493 | relative viability (NCI-H1944; first compound 0.253 µM): 0.239 | relative viability (NCI-H1944; first compound 0.8 µM): 0.251 | relative viability (NCI-H1944; first compound 2.53 µM): 0.208 | relative viability (NCI-H1944; first compound 8 µM): 0.173 | relative viability (NCI-H2126; first compound 0.253 µM): 0.661 | relative viability (NCI-H2126; first compound 0.8 µM): 0.559 | relative viability (NCI-H2126; first compound 2.53 µM): 0.678 | relative viability (NCI-H2126; first compound 8 µM): 0.479 | relative viability (NCI-H322M; first compound 0.253 µM): 0.262 | relative viability (NCI-H322M; first compound 0.8 µM): 0.279 | relative viability (NCI-H322M; first compound 2.53 µM): 0.254 | relative viability (NCI-H322M; first compound 8 µM): 0.253 | relative viability (NCI-H1666; first compound 0.253 µM): 0.858 | relative viability (NCI-H1666; first compound 2.53 µM): 0.849 | relative viability (NCI-H1666; first compound 8 µM): 0.783 | relative viability (NCI-H2228; first compound 0.253 µM): 0.444 | relative viability (NCI-H2228; first compound 0.8 µM): 0.58 | relative viability (NCI-H2228; first compound 2.53 µM): 0.562 | relative viability (NCI-H2228; first compound 8 µM): 0.405 | relative viability (COR-L23; first compound 0.253 µM): 0.541 | relative viability (COR-L23; first compound 0.8 µM): 0.507 | relative viability (COR-L23; first compound 2.53 µM): 0.63 | relative viability (COR-L23; first compound 8 µM): 0.569 | relative viability (EPLC-272H; first compound 0.253 µM): 0.379 | relative viability (EPLC-272H; first compound 0.8 µM): 0.358 | relative viability (EPLC-272H; first compound 2.53 µM): 0.321 | relative viability (EPLC-272H; first compound 8 µM): 0.235 | relative viability (NCI-H2087; first compound 0.253 µM): 0.865 | relative viability (NCI-H2087; first compound 0.8 µM): 0.851 | relative viability (NCI-H2087; first compound 2.53 µM): 0.928 | relative viability (NCI-H2087; first compound 8 µM): 0.829 | relative viability (SW 1573; first compound 0.253 µM): 0.637 | relative viability (SW 1573; first compound 0.8 µM): 0.547 | relative viability (SW 1573; first compound 2.53 µM): 0.455 | relative viability (SW 1573; first compound 8 µM): 0.392 | relative viability (NCI-H2023; first compound 0.253 µM): 0.612 | relative viability (NCI-H2023; first compound 0.8 µM): 0.515 | relative viability (NCI-H2023; first compound 2.53 µM): 0.608 | relative viability (NCI-H2023; first compound 8 µM): 0.416 | relative viability (PC-14; first compound 0.253 µM): 0.236 | relative viability (PC-14; first compound 0.8 µM): 0.28 | relative viability (PC-14; first compound 2.53 µM): 0.281 | relative viability (PC-14; first compound 8 µM): 0.304 | relative viability (ChaGo-K-1; first compound 0.253 µM): 0.565 | relative viability (ChaGo-K-1; first compound 0.8 µM): 0.495 | relative viability (ChaGo-K-1; first compound 2.53 µM): 0.677 | relative viability (ChaGo-K-1; first compound 8 µM): 0.595 | relative viability (NCI-H460; first compound 0.253 µM): 0.597 | relative viability (NCI-H460; first compound 0.8 µM): 0.473 | relative viability (NCI-H460; first compound 2.53 µM): 0.673 | relative viability (NCI-H460; first compound 8 µM): 0.308 | relative viability (HOP-62; first compound 0.253 µM): 0.67 | relative viability (HOP-62; first compound 0.8 µM): 0.615 | relative viability (HOP-62; first compound 2.53 µM): 0.79 | relative viability (HOP-62; first compound 8 µM): 0.583 | relative viability (NCI-H1355; first compound 0.253 µM): 0.701 | relative viability (NCI-H1355; first compound 2.53 µM): 0.744 | relative viability (NCI-H1355; first compound 8 µM): 0.403 | relative viability (EMC-BAC-2; first compound 0.253 µM): 0.319 | relative viability (EMC-BAC-2; first compound 0.8 µM): 0.28 | relative viability (EMC-BAC-2; first compound 2.53 µM): 0.33 | relative viability (EMC-BAC-2; first compound 8 µM): 0.256 | relative viability (LCLC-103H; first compound 0.253 µM): 0.442 | relative viability (LCLC-103H; first compound 0.8 µM): 0.325 | relative viability (LCLC-103H; first compound 2.53 µM): 0.453 | relative viability (LCLC-103H; first compound 8 µM): 0.296 | relative viability (NCI-H3122; first compound 0.253 µM): 0.897 | relative viability (NCI-H3122; first compound 0.8 µM): 0.991 | relative viability (NCI-H3122; first compound 2.53 µM): 0.746 | relative viability (NCI-H3122; first compound 8 µM): 0.677 | relative viability (NCI-H596; first compound 0.253 µM): 0.644 | relative viability (NCI-H596; first compound 2.53 µM): 0.655 | relative viability (NCI-H596; first compound 8 µM): 0.505 | relative viability (NCI-H2405; first compound 0.253 µM): 0.23 | relative viability (NCI-H2405; first compound 0.8 µM): 0.185 | relative viability (NCI-H2405; first compound 2.53 µM): 0.217 | relative viability (NCI-H2405; first compound 8 µM): 0.21 | relative viability (NCI-H1975; first compound 0.253 µM): 0.406 | relative viability (NCI-H1975; first compound 0.8 µM): 0.287 | relative viability (NCI-H1975; first compound 2.53 µM): 0.486 | relative viability (NCI-H1975; first compound 8 µM): 0.366 | relative viability (LK-2; first compound 0.253 µM): 0.401 | relative viability (LK-2; first compound 0.8 µM): 0.332 | relative viability (LK-2; first compound 2.53 µM): 0.249 | relative viability (LK-2; first compound 8 µM): 0.172
